# Literature values, collected in patent EP3263095A1, “A PHARMACEUTICAL FORMULATION OF OLAPARIB” (Zentiva K.S., priority 2016, dated 2018).
# Conditions: EMA/CHMP/789139/2014
compound,measurement,value
"O=C(c1cc(Cc2n[nH]c(=O)c3ccccc23)ccc1F)N1CCN(C(=O)C2CC2)CC1 [olaparib, 4-[(3-[(4-cyclopropylcarbonyl)piperazin-4-yl]carbonyl)-4-fluorophenyl]methyl(2H)-phtalazin-1-one]",Group of the Biopharmaceutical Classification System (low solubility and bioavailability),Group 4
